{"source": "patent US12018093B2", "about": "“Hemiasterlin derivatives and antibody-drug conjugates including same” (priority 2017, dated 2024)", "key": {"[1]": {"test_system": "SK-BR-3 cells", "assay": "Cellular toxicity test (2), CellTiter-Glo, SK-BR-3", "format": "cell-based", "settings": "Homo sapiens, 72 h, cultured 3 days, cell viability", "method": "(§1) The IC50 value was calculated by the following formula: IC50(nM)=antilog(LOG10(a/b)×(e−d)/(c−d)+LOG10b) • a: concentration a of test substance • b: concentration b of test substance • c: cell viability upon adding test substance with concentration a • d: cell viability upon adding test substance with concentration b • e: intermediate value between maximum and minimum among cell viabilities upon • adding test substances with different concentrations (a and b are concentrations crossing the cell viability e, and a>b is indicated).\n(§2) The cell viability at each concentration was calculated by the following formula: Cell Viability (%)=a′/b′×100 • a′: mean value of luminescence amount of wells to which test substance was added (n=6) • b′: mean value of luminescence amount of wells to which test substance was not added (n=6) • (n represents the number of evaluations performed per test substance concentration).\nSK-BR-3 cells (ATCC), which are a human breast cancer cell line, were cultured in McCoy's 5A (GIBCO) containing 10% fetal bovine serum (MP Biomedicals) (hereinafter, referred to as the “culture medium” in this test). SK-BR-3 cells were prepared to be 2×10^6 cells/mL in the culture medium, added to a 96 well microplate for cell culturing in an amount of 50 μL for each well, and cultured at 37 degree under 5% CO2 overnight, and then, compounds of Examples or hemiasterlin 4 times diluted with the culture medium in 8 stages were added to the microplate in an amount of 50 μL for each well. To wells to which the test substance was not added, the culture medium was added in an amount of 50 μL for each well. These were cultured at 37 degree under 5% CO2 for 3 days. After culturing, the microplate was taken out from the incubator, and was left at rest at room temperature for 10 minutes. 50 μL of CellTiter-Glo Luminescent Cell Viability Assay (Promega) was added, and the resultant mixture was stirred. This mixture was incubated at a dark place for 20 minutes. Using a microplate luminometer, luminescence at each well was measured, thereby calculating the cell viability for each concentration of the test substance. The IC50 value was calculated in accordance with the method described in Test Example 3."}, "[2]": {"assay": "in vitro", "settings": "PAMPA, pH 7.4", "method": "By the parallel artificial membrane permeability assay (PAMPA), the membrane permeability of compounds of Examples was examined as follows: To the donor plate, System solution (pION inc.) and GIT Lipid-0 (pION inc.) were added in an amount of 200 μL and 4 μL for each well, respectively. To the acceptor plate, Acceptor Sink Buffer (pION inc.) was added in an amount of 200 μL. Both plates were superposed and incubated at 37° C. for 4 hours, and then, UVs in the solutions on the side of acceptor and on the side of donor were measured with an UV plate reader (190 to 500 nm). Compounds with poor UV absorption were measured by LC-MS. The permeability coefficient Pe (10^−6 cm/sec) of the drug was calculated by the following formula."}, "[3]": {"test_system": "SU-DHL-1 cells", "assay": "Cellular toxicity test (1), CellTiter-Glo, SU-DHL-1", "format": "cell-based", "settings": "Homo sapiens, 96 h, cultured 4 days, cell viability", "method": "(§3) SU-DHL-1 cells (American Type Culture Collection, hereinafter, ATCC) and Karpas-299 cells (European Collection of Authenticated Cell Cultures, hereinafter, ECACC), which are human lymphoma cell lines, were cultured in RPMI 1640 (GIBCO) containing 10% fetal bovine serum (MP Biomedicals) (hereinafter, referred to as the “culture medium” in this test). SU-DHL-1 cells and Karpas-299 cells were prepared to be 2×10^6 cells/mL in the culture medium, and were added to a 96 well microplate for cell culturing in an amount of 50 μL for each well. Compounds of Examples or hemiasterlin 4 times diluted with the culture medium in 8 stages were added to the microplate in an amount of 50 μL for each well. To wells to which the test substance was not added, the culture medium was added in an amount of 50 μL for each well. These were cultured at 37 degree under 5% CO2 for 4 days. After culturing, the microplate was taken out from the incubator, and was left at rest at room temperature for 10 minutes. To each well, 50 μL of CellTiter-Glo Luminescent Cell Viability Assay (Promega) was added, and the resultant mixture was stirred. This mixture was incubated at a dark place for 20 minutes. Using a microplate luminometer, luminescence at each well was measured, thereby calculating the cell viability for each concentration of the test substance. From the cell viability, the IC50 value of the test substance was determined.\nas §1, §2"}, "[4]": {"test_system": "Karpas-299 cells", "assay": "Cellular toxicity test (1), CellTiter-Glo, Karpas-299", "format": "cell-based", "settings": "Homo sapiens, 96 h, cultured 4 days, cell viability", "method": "as §3, §1, §2"}, "[5]": {"molecular_target": "porcine tubulin (Sus scrofa, UniProt P02550+P02554)", "sequence (P02554 whole entry)": "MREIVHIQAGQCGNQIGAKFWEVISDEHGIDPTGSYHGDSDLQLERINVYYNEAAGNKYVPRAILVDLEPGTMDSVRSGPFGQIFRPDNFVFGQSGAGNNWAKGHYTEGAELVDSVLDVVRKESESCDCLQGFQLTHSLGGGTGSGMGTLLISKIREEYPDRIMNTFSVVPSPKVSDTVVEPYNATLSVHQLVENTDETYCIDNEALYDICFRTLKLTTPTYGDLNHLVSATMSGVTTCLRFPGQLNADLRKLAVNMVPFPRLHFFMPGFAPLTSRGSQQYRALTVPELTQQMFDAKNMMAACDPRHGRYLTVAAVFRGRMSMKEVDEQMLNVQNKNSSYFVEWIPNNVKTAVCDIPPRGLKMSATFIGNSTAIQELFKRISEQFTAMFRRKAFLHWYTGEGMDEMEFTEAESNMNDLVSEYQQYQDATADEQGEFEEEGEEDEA", "sequence (P02550 whole entry)": "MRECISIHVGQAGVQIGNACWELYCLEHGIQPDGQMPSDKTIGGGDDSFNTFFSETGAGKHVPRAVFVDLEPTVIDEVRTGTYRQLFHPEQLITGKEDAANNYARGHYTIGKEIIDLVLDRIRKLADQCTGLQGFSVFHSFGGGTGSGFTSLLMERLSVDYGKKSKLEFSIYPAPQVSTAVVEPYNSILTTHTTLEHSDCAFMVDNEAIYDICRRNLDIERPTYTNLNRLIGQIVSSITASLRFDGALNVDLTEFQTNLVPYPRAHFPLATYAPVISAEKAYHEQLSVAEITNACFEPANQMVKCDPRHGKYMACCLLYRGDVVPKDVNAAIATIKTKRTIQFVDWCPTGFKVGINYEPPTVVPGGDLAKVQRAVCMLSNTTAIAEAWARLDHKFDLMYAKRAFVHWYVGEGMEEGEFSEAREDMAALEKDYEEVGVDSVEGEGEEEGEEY", "assay": "Activity for inhibiting microtubule polymerization using porcine tubulins (1)", "format": "biochemical", "design": "purchased Cytoskeleton Inc. BK006P", "settings": "compound 0.91 μM; absorbance at 340 nm, 37° C.; FIG. 1 and FIG. 2"}, "[6]": {"assay": "Pharmacokinetic evaluation test using mice", "format": "in vivo", "method": "A pharmacokinetic evaluation test was performed by single intravenous administration of Example 4 at a dose of 1.0 mg/kg to mice. A calibration curve was made from measurements of Example 4 with known concentration, and by interpolating measurements of each specimen to this, the amount of the compound contained in unit volume of each plasma was calculated using LC-MS. Pharmacokinetics of compound 14 and hemiasterlin were similarly evaluated.\n(n.d. in the tables means less than the detection limit value (0.5 ng/mL).)"}}, "note": "“Also recorded” adds a separate entry of the source."}
{"smiles": "CCOC(=O)[C@@H](CCC(=O)O)NC(=O)/C(C)=C/[C@H](C(C)C)N(C)C(=O)[C@@H](NC(=O)[C@@H](NC)C(C)(C)c1cn(C)c2ccccc12)C(C)(C)C", "note": "[Example 14]", "values": [{"measurement": "IC50", "setting": "[1]", "result": 1.03, "unit": "nM"}, {"measurement": "Papp", "setting": "[2]", "result": 4.5, "unit": "×10⁻⁶ cm/s"}, {"measurement": "IC50", "setting": "[3]", "result": 0.24, "unit": "nM"}, {"measurement": "IC50", "setting": "[4]", "result": 0.12, "unit": "nM"}, {"measurement": "activity for inhibiting microtubule polymerization", "setting": "[5]", "result": "exhibited activities for inhibiting microtubule polymerization; also recorded: exhibited polymerization inhibitory activity concentration-dependently"}, {"measurement": "half-life", "setting": "[6]; mouse, plasma, 1 mg/kg, single intravenous administration", "result": "< 30", "unit": "min"}, {"measurement": "Blood concentration of Example 14", "setting": "[6]; single intravenous administration of Example 14, 0.5 hr, animal 1", "result": "n.d. (less than the detection limit value (0.5 ng/mL))"}, {"measurement": "Blood concentration of Example 14", "setting": "[6]; single intravenous administration of Example 14, 0.5 hr, animal 2", "result": "n.d. (less than the detection limit value (0.5 ng/mL))"}, {"measurement": "Blood concentration of Example 14", "setting": "[6]; single intravenous administration of Example 14, 0.5 hr, animal 3", "result": "n.d. (less than the detection limit value (0.5 ng/mL))"}, {"measurement": "Blood concentration of Example 14, mean", "setting": "[6]; single intravenous administration of Example 14, 0.5 hr", "result": "n.d. (less than the detection limit value (0.5 ng/mL))"}, {"measurement": "Blood concentration of Example 14", "setting": "[6]; single intravenous administration of Example 14, 2 hr, animal 1", "result": "n.d. (less than the detection limit value (0.5 ng/mL))"}, {"measurement": "Blood concentration of Example 14", "setting": "[6]; single intravenous administration of Example 14, 2 hr, animal 2", "result": "n.d. (less than the detection limit value (0.5 ng/mL))"}, {"measurement": "Blood concentration of Example 14", "setting": "[6]; single intravenous administration of Example 14, 2 hr, animal 3", "result": "n.d. (less than the detection limit value (0.5 ng/mL))"}, {"measurement": "Blood concentration of Example 14, mean", "setting": "[6]; single intravenous administration of Example 14, 2 hr", "result": "n.d. (less than the detection limit value (0.5 ng/mL))"}, {"measurement": "Blood concentration of Example 14", "setting": "[6]; single intravenous administration of Example 14, 6 hr, animal 1", "result": "n.d. (less than the detection limit value (0.5 ng/mL))"}, {"measurement": "Blood concentration of Example 14", "setting": "[6]; single intravenous administration of Example 14, 6 hr, animal 2", "result": "n.d. (less than the detection limit value (0.5 ng/mL))"}, {"measurement": "Blood concentration of Example 14", "setting": "[6]; single intravenous administration of Example 14, 6 hr, animal 3", "result": "n.d. (less than the detection limit value (0.5 ng/mL))"}, {"measurement": "Blood concentration of Example 14, mean", "setting": "[6]; single intravenous administration of Example 14, 6 hr", "result": "n.d. (less than the detection limit value (0.5 ng/mL))"}, {"measurement": "Blood concentration of Example 14", "setting": "[6]; single intravenous administration of Example 14, 24 hr, animal 1", "result": "n.d. (less than the detection limit value (0.5 ng/mL))"}, {"measurement": "Blood concentration of Example 14", "setting": "[6]; single intravenous administration of Example 14, 24 hr, animal 2", "result": "n.d. (less than the detection limit value (0.5 ng/mL))"}, {"measurement": "Blood concentration of Example 14", "setting": "[6]; single intravenous administration of Example 14, 24 hr, animal 3", "result": "n.d. (less than the detection limit value (0.5 ng/mL))"}, {"measurement": "Blood concentration of Example 14, mean", "setting": "[6]; single intravenous administration of Example 14, 24 hr", "result": "n.d. (less than the detection limit value (0.5 ng/mL))"}]}
